Measurements: patent US9884828B2, “Substituted cinnolines as inhibitors of LRRK2 kinase activity” (Imago Pharmaceuticals, Inc., priority 2011, dated 2018)
pIC50: −log10 of the molar value.

Molecular target: recombinant GST-LRRK2 (wild-type) (Homo sapiens (Human), UniProt Q5S007)
Assay: LRRK2 TR-FRET peptide assay (in vitro kinase activity), wild-type
Type: biochemical
Details: 100 μM ATP, 100 nM biotin-LRRKtide substrate, 10 nM kinase, 60 minutes at room temperature
Method: Compounds as described herein (compounds of Formula I, e.g., compounds of the above Examples) are tested for their in vitro kinase activities using various LRRK2 (including LRRK2 G2019S mutant) assays. […] Serially diluted compounds (1% DMSO as co-solvent) were pre-incubated with recombinant GST-LRRK2 (wild-type, or G2019S mutant, Invitrogen) for 15 minutes at room temperature in 384-well Corning black plates. […] The inhibition of each well was calculated using the control and background readings for that plate. IC50 values were determined from dose-response curves using eight concentrations from the serial dilution of the test compounds.

Sequence of recombinant GST-LRRK2 (wild-type) (Q5S007 whole entry): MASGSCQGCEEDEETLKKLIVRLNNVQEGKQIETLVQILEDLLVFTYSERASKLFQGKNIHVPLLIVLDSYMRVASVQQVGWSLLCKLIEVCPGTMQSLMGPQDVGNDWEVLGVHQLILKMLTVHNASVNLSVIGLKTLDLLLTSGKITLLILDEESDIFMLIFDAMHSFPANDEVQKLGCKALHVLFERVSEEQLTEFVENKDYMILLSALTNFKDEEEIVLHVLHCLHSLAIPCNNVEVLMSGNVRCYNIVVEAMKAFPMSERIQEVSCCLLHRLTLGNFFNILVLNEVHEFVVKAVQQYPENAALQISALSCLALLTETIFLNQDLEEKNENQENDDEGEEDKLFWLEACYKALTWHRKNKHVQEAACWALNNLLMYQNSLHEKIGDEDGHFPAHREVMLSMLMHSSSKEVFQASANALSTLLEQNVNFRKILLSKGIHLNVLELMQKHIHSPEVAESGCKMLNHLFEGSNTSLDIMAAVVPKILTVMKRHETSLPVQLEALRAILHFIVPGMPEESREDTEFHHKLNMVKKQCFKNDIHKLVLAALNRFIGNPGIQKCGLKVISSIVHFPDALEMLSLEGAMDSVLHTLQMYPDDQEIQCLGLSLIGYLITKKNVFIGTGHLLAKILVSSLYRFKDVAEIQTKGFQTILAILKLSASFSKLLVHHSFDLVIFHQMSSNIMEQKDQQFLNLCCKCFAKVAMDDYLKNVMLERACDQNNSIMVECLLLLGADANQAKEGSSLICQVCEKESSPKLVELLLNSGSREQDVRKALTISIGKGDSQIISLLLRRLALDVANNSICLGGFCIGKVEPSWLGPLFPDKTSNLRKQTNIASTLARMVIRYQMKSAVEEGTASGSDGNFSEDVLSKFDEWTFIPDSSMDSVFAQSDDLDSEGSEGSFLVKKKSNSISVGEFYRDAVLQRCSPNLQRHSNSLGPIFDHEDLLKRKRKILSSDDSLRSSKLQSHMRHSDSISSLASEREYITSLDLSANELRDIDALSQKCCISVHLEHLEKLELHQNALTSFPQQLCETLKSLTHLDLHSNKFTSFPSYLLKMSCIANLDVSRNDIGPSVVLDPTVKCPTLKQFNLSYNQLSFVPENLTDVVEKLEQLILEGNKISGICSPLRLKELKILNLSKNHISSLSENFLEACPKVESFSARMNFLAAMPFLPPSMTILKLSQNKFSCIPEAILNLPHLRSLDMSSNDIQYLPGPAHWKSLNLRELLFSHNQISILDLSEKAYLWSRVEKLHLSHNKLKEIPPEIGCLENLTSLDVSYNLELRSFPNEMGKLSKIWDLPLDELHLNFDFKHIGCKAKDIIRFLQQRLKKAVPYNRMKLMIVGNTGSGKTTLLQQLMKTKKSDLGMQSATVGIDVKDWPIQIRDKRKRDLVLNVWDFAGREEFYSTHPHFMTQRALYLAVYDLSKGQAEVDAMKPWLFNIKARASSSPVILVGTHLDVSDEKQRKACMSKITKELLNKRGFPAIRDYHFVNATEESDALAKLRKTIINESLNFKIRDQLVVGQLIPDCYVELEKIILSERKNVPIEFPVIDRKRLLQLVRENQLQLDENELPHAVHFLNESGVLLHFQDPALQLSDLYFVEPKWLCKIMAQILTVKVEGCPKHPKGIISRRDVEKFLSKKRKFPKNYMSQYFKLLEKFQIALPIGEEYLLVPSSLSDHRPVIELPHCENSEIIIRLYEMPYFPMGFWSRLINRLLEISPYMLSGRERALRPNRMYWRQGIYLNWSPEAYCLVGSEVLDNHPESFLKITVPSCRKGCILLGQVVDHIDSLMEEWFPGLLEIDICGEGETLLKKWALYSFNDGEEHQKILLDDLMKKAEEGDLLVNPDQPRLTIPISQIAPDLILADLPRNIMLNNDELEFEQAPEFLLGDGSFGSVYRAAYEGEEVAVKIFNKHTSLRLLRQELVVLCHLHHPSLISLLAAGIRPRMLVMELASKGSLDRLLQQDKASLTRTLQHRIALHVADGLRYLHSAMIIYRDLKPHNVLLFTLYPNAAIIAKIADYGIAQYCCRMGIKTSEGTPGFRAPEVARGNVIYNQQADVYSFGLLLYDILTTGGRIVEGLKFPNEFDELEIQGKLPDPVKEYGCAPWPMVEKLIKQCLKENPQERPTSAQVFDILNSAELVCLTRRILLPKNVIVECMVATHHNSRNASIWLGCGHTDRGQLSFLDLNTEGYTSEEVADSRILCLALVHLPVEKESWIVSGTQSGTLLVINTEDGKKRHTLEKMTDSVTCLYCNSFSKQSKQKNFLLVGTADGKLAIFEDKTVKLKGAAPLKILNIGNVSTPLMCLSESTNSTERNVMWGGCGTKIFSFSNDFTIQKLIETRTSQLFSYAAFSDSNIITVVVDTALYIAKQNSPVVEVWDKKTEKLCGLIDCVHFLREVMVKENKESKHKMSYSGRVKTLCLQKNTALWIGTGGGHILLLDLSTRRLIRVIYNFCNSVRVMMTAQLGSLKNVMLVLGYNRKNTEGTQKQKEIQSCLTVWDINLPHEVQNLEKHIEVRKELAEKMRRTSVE

Structure (SMILES)	pIC50
CC[C@@H](C)Nc1c(C(N)=O)nnc2cc(-c3ccc(S(C)(=O)=O)cc3)ccc12 [Compound 2-37, (R)-(sec-butylamino)-7-(4-(methylsulfonyl)phenyl)cinnoline-3-carboxamide]	> 8.22
CN1CCC(Nc2c(C(N)=O)nnc3cc(-c4ccc(S(C)(=O)=O)cc4)ccc23)CC1 [Compound 2-21, 4-(1-methylpiperidin-4-ylamino)-7-(4-(methylsulfonyl)phenyl)cinnoline-3-carboxamide]	6.74
C[C@@H](Nc1c(C(N)=O)nnc2cc(-c3cccc(OCC4CC4)c3)ccc12)C1CC1 [Compound 2-113, (R)-4-(1-cyclopropylethylamino)-7-(3-(cyclopropylmethoxy)phenyl)cinnoline-3-carboxamide]	7.29
C[C@@H](Nc1c(C(N)=O)nnc2cc(-c3cnn(C)c3)ccc12)C1CC1 [Compound 2-101, (R)-4-(1-cyclopropylethylamino)-7-(1-methyl-1H-pyrazol-4-yl)cinnoline-3-carboxamide]	9.00
CC(C)Nc1c(C(N)=O)nnc2ccc(-c3cncs3)cc12 [Compound 2-131, 4-(isopropylamino)-6-(thiazol-5-yl)cinnoline-3-carboxamide]	6.96
C[C@@H](Nc1c(C#N)nnc2cc(-c3ccc(S(C)(=O)=O)cc3)ccc12)C1CC1 [Compound 2-42, (R)-4-(1-cyclopropylethylamino)-7-(4-(methylsulfonyl)phenyl)cinnoline-3-carbonitrile]	6.25
NC(=O)c1nnc2cc(-c3cccc(N4CCOCC4)c3)ccc2c1N [Compound 1-6, 4-amino-7-(3-morpholinophenyl)cinnoline-3-carboxamide]	6.92
CC(C)Nc1c(I)nnc2cc(-c3ccc(S(C)(=O)=O)cc3)ccc12 [Compound 3-68, 3-iodo-N-isopropyl-7-(4-(methylsulfonyl)phenyl)cinnolin-4-amine]	6.02
CC(C)Nc1c(-c2cccnc2)nnc2cc(-c3ccc(S(C)(=O)=O)cc3)ccc12 [Compound 3-72, N-isopropyl-7-(4-(methylsulfonyl)phenyl)-3-(pyridin-3-yl)cinnolin-4-amine]	4.89
CS(=O)(=O)c1ccc(-c2ccc3c(NCC4CC4)c(C(N)=O)nnc3c2)cc1 [Compound 2-92]	7.77
C[C@@H](Nc1c(C(N)=O)nnc2cc(-c3cccc4c3CC(=O)N4)ccc12)C1CC1 [Compound 2-119, (R)-4-(1-cyclopropylethylamino)-7-(2-oxoindolin-4-yl)cinnoline-3-carboxamide]	7.74
CS(=O)(=O)c1ccc(-c2ccc3c(NC4COC4)c(C(N)=O)nnc3c2)cc1 [Compound 2-27, 7-(4-(methylsulfonyl)phenyl)-4-(oxetan-3-ylamino)cinnoline-3-carboxamide]	6.74
CC(C)Nc1c(-c2cscn2)nnc2cc(-c3ccc(S(C)(=O)=O)cc3)ccc12 [Compound 3-70, N-isopropyl-7-(4-(methylsulfonyl)phenyl)-3-(thiazol-4-yl)cinnolin-4-amine]	< 4.00
CC(C)Nc1c(C(N)=O)nnc2ccc(-c3nccs3)cc12 [Compound 2-130, 4-(isopropylamino)-6-(thiazol-2-yl)cinnoline-3-carboxamide]	6.24
CS(=O)(=O)c1ccc(-c2ccc3c(NC4CCC4)c(C(N)=O)nnc3c2)cc1 [Compound 2-19, 4-(cyclobutylamino)-7-(4-(methylsulfonyl)phenyl)cinnoline-3-carboxamide]	8.00
CC(C)Nc1c(C(N)=O)nnc2cc(Sc3ccccc3)ccc12 [Compound 4-76, 4-(isopropylamino)-7-(phenylthio)cinnoline-3-carboxamide]	6.25
CC(C)Nc1c(-c2nc[nH]n2)nnc2cc(-c3ccc(S(C)(=O)=O)cc3)ccc12 [Compound 8-200, N-Isopropyl-7-(4-(methylsulfonyl)phenyl)-3-(1H-1,2,4-triazol-3-yl)cinnolin-4-amine]	6.38
COc1ccc(-n2cccn2)cc1-c1ccc2c(N[C@H](C)C3CC3)c(C(N)=O)nnc2c1 [Compound 9-207, (R)-4-(1-cyclopropylethylamino)-7-(2-methoxy-5-(1H-pyrazol-1-yl)phenyl)cinnoline-3-carboxamide]	6.55
CC(C)Nc1c(-c2ncc[nH]2)nnc2cc(-c3ccc(S(C)(=O)=O)cc3)ccc12 [Compound 13-233, 3-(1H-imidazol-2-yl)-N-isopropyl-7-(4-(methylsulfonyl)phenyl)cinnolin-4-amine]	7.29
CS(=O)(=O)c1ccc(-c2ccc3c(NC45CC6CC(CC(C6)C4)C5)c(C(N)=O)nnc3c2)cc1 [Compound 2-88, 4-(1-adamantylamino)-7-(4-(methylsulfonyl)phenyl)cinnoline-3-carboxamide]	6.38

Structure (SMILES)	pIC50
CC(C)Nc1c(C#N)nnc2cc(-c3ccc(S(C)(=O)=O)cc3)ccc12 [Compound 2-18, 4-(isopropylamino)-7-(4-(methylsulfonyl)phenyl)cinnoline-3-carbonitrile]	6.21
CC(C)(C)c1ccc2nnc(C(N)=O)c(N)c2c1 [Compound 1-186, 4-amino-6-tert-butylcinnoline-3-carboxamide]	5.40
COc1cc(-c2nccn2C)ccc1-c1ccc2c(N[C@H](C)C3CC3)c(C(N)=O)nnc2c1 [Compound 11-221, (R)-4-(1-cyclopropylethylamino)-7-(2-methoxy-4-(1-methyl-1H-imidazol-2-yl)phenyl)cinnoline-3-carboxamide]	8.05
C[C@@H](Nc1c(C(N)=O)nnc2cc(-c3ccccc3)ccc12)C1CC1 [Compound 2-110, (R)-4-(1-cyclopropylethylamino)-7-phenylcinnoline-3-carboxamide]	8.00
CC(C)Nc1c(C(N)=O)nnc2cc(-c3cn[nH]c3)ccc12 [Compound 2-53, 4-(isopropylamino)-7-(1H-pyrazol-4-yl)cinnoline-3-carboxamide]	8.05
COc1ccc(S(C)(=O)=O)cc1-c1ccc2c(N[C@H](C)C3CC3)c(C(N)=O)nnc2c1 [Compound 2-115, (R)-4-(1-cyclopropylethylamino)-7-(2-methoxy-5-(methylsulfonyl)phenyl)cinnoline-3-carboxamide]	7.30
C[C@@H](Nc1c(C(N)=O)nnc2cc(-c3ccccc3Cl)ccc12)C1CC1 [Compound 2-117, (R)-7-(2-chlorophenyl)-4-(1-cyclopropylethylamino)cinnoline-3-carboxamide]	6.34
COc1cccc(Nc2ccc3c(NC(C)C)c(C(N)=O)nnc3c2)c1 [Compound 4-192, 4-(isopropylamino)-7-(3-methoxyphenylamino)cinnoline-3-carboxamide]	6.62
C[C@@H](Nc1c(C(N)=O)nnc2cc(-c3ccc(N4CCOCC4=O)cc3)ccc12)C1CC1 [Compound 2-116, (R)-4-(1-cyclopropylethylamino)-7-(4-(3-oxomorpholino)phenyl)cinnoline-3-carboxamide]	8.00
C[C@@H](Nc1c(C(N)=O)nnc2cc(-c3ccc(S(C)(=O)=O)cc3)ccc12)C1CCOCC1 [Compound 2-90, (R)-7-(4-(methylsulfonyl)phenyl)-4-(1-(tetrahydro-2H-pyran-4-yl)ethylamino)cinnoline-3-carboxamide]	7.20
C=C(C)c1ccc2c(NC(C)C)c(C(N)=O)nnc2c1 [Compound 2-99, 4-(isopropylamino)-7-(prop-1-en-2-yl)cinnoline-3-carboxamide]	7.12
COc1ccc(F)cc1-c1ccc2c(NC(C)C)c(C(N)=O)nnc2c1 [Compound 2-98, 7-(5-fluoro-2-methoxyphenyl)-4-(isopropylamino)cinnoline-3-carboxamide]	6.23
CS(=O)(=O)c1ccc(-c2ccc3c(NC4CC4)c(C(N)=O)nnc3c2)cc1 [Compound 2-29, 4-(cyclopropylamino)-7-(4-(methylsulfonyl)phenyl)cinnoline-3-carboxamide]	7.33
C[C@@H](Nc1c(C(N)=O)nnc2cc(-c3cccc(S(C)(=O)=O)c3)ccc12)C1CC1 [Compound 2-111, (R)-4-(1-cyclopropylethylamino)-7-(3-(methylsulfonyl)phenyl)cinnoline-3-carboxamide]	9.00
COc1cc(-c2ncccc2F)ccc1-c1ccc2c(N[C@H](C)C3CC3)c(C(N)=O)nnc2c1 [Compound 11-218, (R)-4-(1-Cyclopropylethylamino)-7-(4-(3-fluoropyridin-2-yl)-2-methoxyphenyl)cinnoline-3-carboxamide]	7.37
C[C@@H](Nc1c(C(N)=O)nnc2cc(-c3ccc(=O)n(C)c3)ccc12)C1CC1 [Compound 2-112, (R)-4-(1-cyclopropylethylamino)-7-(1-methyl-6-oxo-1,6-dihydropyridin-3-yl)cinnoline-3-carboxamide]	> 8.22
C[C@@H](Nc1c(C(N)=O)nnc2cc(-c3ccccc3OC(F)(F)F)ccc12)C1CC1 [Compound 2-108, (R)-4-(1-cyclopropylethylamino)-7-(2-(trifluoromethoxy)phenyl)cinnoline-3-carboxamide]	5.37
NC(=O)c1nnc2cc(-c3ccncc3)ccc2c1NCCO [Compound 2-137, 4-(2-hydroxyethylamino)-7-(pyridin-4-yl)cinnoline-3-carboxamide]	6.82
COc1ccc(Br)cc1-c1ccc2c(N[C@H](C)C3CC3)c(C(N)=O)nnc2c1 [Compound 2-109, (R)-7-(5-bromo-2-methoxyphenyl)-4-(1-cyclopropylethylamino)cinnoline-3-carboxamide]	6.15
CC(C)Nc1c(C(N)=O)nnc2cc(-c3cccc(N4CCOCC4)c3)ccc12 [Compound 2-51, 4-(isopropylamino)-7-(3-morpholinophenyl)cinnoline-3-carboxamide]	7.77
